Results reported in PubChem BioAssay (NCI).
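Each compound was tested at five concentrations against cells in 96-well plates for 48 hours. At the TGI there is no net growth.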

Experiments:
Assay in all cases: growth of human tumour cells (NCI), 48 h
786-0 renal = tested on: 786-0 renal
A498 renal = tested on: A498 renal
A549 NSCLC = tested on: A549 NSCLC
ACHN renal = tested on: ACHN renal
CAKI-1 renal = tested on: CAKI-1 renal
CCRF-CEM leukemia = tested on: CCRF-CEM leukemia
COLO 205 colon = tested on: COLO 205 colon
DLD-1 colon = tested on: DLD-1 colon
DMS 114 small cell lung = tested on: DMS 114 small cell lung
DMS 273 small cell lung = tested on: DMS 273 small cell lung
EKVX NSCLC = tested on: EKVX NSCLC
HCC-2998 colon = tested on: HCC-2998 colon
HCT-116 colon = tested on: HCT-116 colon
HCT-15 colon = tested on: HCT-15 colon
HL-60(TB) leukemia = tested on: HL-60(TB) leukemia
HOP-18 NSCLC = tested on: HOP-18 NSCLC
HOP-62 NSCLC = tested on: HOP-62 NSCLC
HOP-92 NSCLC = tested on: HOP-92 NSCLC
HT29 colon = tested on: HT29 colon
IGROV1 ovarian = tested on: IGROV1 ovarian
K-562 leukemia = tested on: K-562 leukemia
KM12 colon = tested on: KM12 colon
KM20L2 colon = tested on: KM20L2 colon
LOX IMVI melanoma = tested on: LOX IMVI melanoma
LXFL 529 NSCLC = tested on: LXFL 529 NSCLC
M14 melanoma = tested on: M14 melanoma
M19-MEL melanoma = tested on: M19-MEL melanoma
MALME-3M melanoma = tested on: MALME-3M melanoma
MOLT-4 leukemia = tested on: MOLT-4 leukemia
NCI-H226 lung = tested on: NCI-H226 lung
NCI-H23 lung = tested on: NCI-H23 lung
NCI-H460 lung = tested on: NCI-H460 lung
NCI-H522 lung = tested on: NCI-H522 lung
OVCAR-3 ovarian = tested on: OVCAR-3 ovarian
OVCAR-4 ovarian = tested on: OVCAR-4 ovarian
OVCAR-5 ovarian = tested on: OVCAR-5 ovarian
OVCAR-8 ovarian = tested on: OVCAR-8 ovarian
RXF 393 renal = tested on: RXF 393 renal
SF-268 CNS = tested on: SF-268 CNS
SF-295 CNS = tested on: SF-295 CNS
SF-539 CNS = tested on: SF-539 CNS
SK-MEL-2 melanoma = tested on: SK-MEL-2 melanoma
SK-MEL-28 melanoma = tested on: SK-MEL-28 melanoma
SK-OV-3 ovarian = tested on: SK-OV-3 ovarian
SN12C renal = tested on: SN12C renal
SNB-19 CNS = tested on: SNB-19 CNS
SNB-75 CNS = tested on: SNB-75 CNS
SNB-78 CNS = tested on: SNB-78 CNS
SW-620 colon = tested on: SW-620 colon
TK-10 renal = tested on: TK-10 renal
U251 CNS = tested on: U251 CNS
UACC-257 melanoma = tested on: UACC-257 melanoma
UACC-62 melanoma = tested on: UACC-62 melanoma
UO-31 renal = tested on: UO-31 renal
XF 498 CNS = tested on: XF 498 CNS
BT-549 breast = tested on: BT-549 breast
DU-145 prostate = tested on: DU-145 prostate
HS 578T breast = tested on: HS 578T breast
MCF7 breast = tested on: MCF7 breast
MDA-MB-231 breast = tested on: MDA-MB-231 breast
MDA-N = tested on: MDA-N
NCI/ADR-RES ovarian = tested on: NCI/ADR-RES ovarian
PC-3 prostate = tested on: PC-3 prostate
RPMI-8226 leukemia = tested on: RPMI-8226 leukemia
SK-MEL-5 melanoma = tested on: SK-MEL-5 melanoma
SR leukemia = tested on: SR leukemia
T-47D breast = tested on: T-47D breast

SMILES: CC1CN1c1c(C(=O)/C=C/c2ccc(Cl)cc2)c(-c2ccccc2)nn(C)c1=O (stereo unspecified)
- TGI (786-0 renal): 8.95 µM
- TGI (A498 renal): > 10 µM
- TGI (A549 NSCLC): > 10 µM
- TGI (ACHN renal): 5.27 µM
- TGI (CAKI-1 renal): > 10 µM
- TGI (CCRF-CEM leukemia): 5.2 µM
- TGI (COLO 205 colon): 3.67 µM
- TGI (DLD-1 colon): 3.45 µM
- TGI (DMS 114 small cell lung): > 10 µM
- TGI (DMS 273 small cell lung): 6.29 µM
- TGI (EKVX NSCLC): > 10 µM
- TGI (HCC-2998 colon): 4.2 µM
- TGI (HCT-116 colon): 6.47 µM
- TGI (HCT-15 colon): 3.55 µM
- TGI (HL-60(TB) leukemia): 5.22 µM
- TGI (HOP-18 NSCLC): > 10 µM
- TGI (HOP-62 NSCLC): 7.66 µM
- TGI (HOP-92 NSCLC): > 10 µM
- TGI (HT29 colon): > 10 µM
- TGI (IGROV1 ovarian): 8.68 µM
- TGI (K-562 leukemia): 8.8 µM
- TGI (KM12 colon): > 10 µM
- TGI (KM20L2 colon): > 10 µM
- TGI (LOX IMVI melanoma): 4.17 µM
- TGI (LXFL 529 NSCLC): 5.13 µM
- TGI (M14 melanoma): 5.63 µM
- TGI (M19-MEL melanoma): > 10 µM
- TGI (MALME-3M melanoma): > 10 µM
- TGI (MOLT-4 leukemia): 8.02 µM
- TGI (NCI-H226 lung): > 10 µM
- TGI (NCI-H23 lung): 6.97 µM
- TGI (NCI-H460 lung): 4.12 µM
- TGI (NCI-H522 lung): 5.99 µM
- TGI (OVCAR-3 ovarian): 6.79 µM
- TGI (OVCAR-4 ovarian): 7.52 µM
- TGI (OVCAR-5 ovarian): > 10 µM
- TGI (OVCAR-8 ovarian): 5.67 µM
- TGI (RXF 393 renal): 8.4 µM
- TGI (SF-268 CNS): > 10 µM
- TGI (SF-295 CNS): > 10 µM
- TGI (SF-539 CNS): 4.14 µM
- TGI (SK-MEL-2 melanoma): 5.8 µM
- TGI (SK-MEL-28 melanoma): > 10 µM
- TGI (SK-OV-3 ovarian): 5.76 µM
- TGI (SN12C renal): 8.45 µM
- TGI (SNB-19 CNS): > 10 µM
- TGI (SNB-75 CNS): 8.28 µM
- TGI (SNB-78 CNS): 5.17 µM
- TGI (SW-620 colon): 6.81 µM
- TGI (TK-10 renal): 8.94 µM
- TGI (U251 CNS): 5.36 µM
- TGI (UACC-257 melanoma): > 10 µM
- TGI (UACC-62 melanoma): 5.69 µM
- TGI (UO-31 renal): > 10 µM
- TGI (XF 498 CNS): 5.5 µM

SMILES: CCN(CC)CCNC(=O)c1ccc(C)c(OCc2ccccc2)c1[N+](=O)[O-]
- TGI (786-0 renal): > 74.6 µM
- TGI (A498 renal): > 82.8 µM
- TGI (A549 NSCLC): > 100 µM
- TGI (ACHN renal): > 89.6 µM
- TGI (BT-549 breast): > 50.6 µM
- TGI (CAKI-1 renal): > 71.1 µM
- TGI (CCRF-CEM leukemia): 81.4 µM
- TGI (COLO 205 colon): 30.8 µM
- TGI (DLD-1 colon): > 100 µM
- TGI (DMS 114 small cell lung): > 65.7 µM
- TGI (DMS 273 small cell lung): 46.9 µM
- TGI (DU-145 prostate): > 100 µM
- TGI (EKVX NSCLC): > 100 µM
- TGI (HCC-2998 colon): > 69.1 µM
- TGI (HCT-116 colon): 47.8 µM
- TGI (HCT-15 colon): 47.4 µM
- TGI (HL-60(TB) leukemia): 53.3 µM
- TGI (HOP-18 NSCLC): > 100 µM
- TGI (HOP-62 NSCLC): > 75.4 µM
- TGI (HOP-92 NSCLC): 83.2 µM
- TGI (HS 578T breast): > 63.6 µM
- TGI (HT29 colon): 38.7 µM
- TGI (IGROV1 ovarian): > 100 µM
- TGI (K-562 leukemia): 49.2 µM
- TGI (KM12 colon): > 81.1 µM
- TGI (KM20L2 colon): 64.5 µM
- TGI (LOX IMVI melanoma): 49.9 µM
- TGI (LXFL 529 NSCLC): 33.9 µM
- TGI (M14 melanoma): 32.3 µM
- TGI (M19-MEL melanoma): 32.7 µM
- TGI (MALME-3M melanoma): 31.2 µM
- TGI (MCF7 breast): > 53.1 µM
- TGI (MDA-MB-231 breast): > 100 µM
- TGI (MDA-N): 38.3 µM
- TGI (MOLT-4 leukemia): 77.8 µM
- TGI (NCI-H226 lung): 90.3 µM
- TGI (NCI-H23 lung): > 100 µM
- TGI (NCI-H460 lung): > 100 µM
- TGI (NCI-H522 lung): 76.5 µM
- TGI (NCI/ADR-RES ovarian): > 62.8 µM
- TGI (OVCAR-3 ovarian): > 75.8 µM
- TGI (OVCAR-4 ovarian): > 100 µM
- TGI (OVCAR-5 ovarian): 81.3 µM
- TGI (OVCAR-8 ovarian): > 100 µM
- TGI (PC-3 prostate): > 100 µM
- TGI (RPMI-8226 leukemia): 72.6 µM
- TGI (RXF 393 renal): > 91.3 µM
- TGI (SF-268 CNS): > 100 µM
- TGI (SF-295 CNS): 55.8 µM
- TGI (SF-539 CNS): 70.9 µM
- TGI (SK-MEL-2 melanoma): 41 µM
- TGI (SK-MEL-28 melanoma): 34.2 µM
- TGI (SK-MEL-5 melanoma): 30.5 µM
- TGI (SK-OV-3 ovarian): > 75.9 µM
- TGI (SN12C renal): > 100 µM
- TGI (SNB-19 CNS): > 100 µM
- TGI (SNB-75 CNS): 67.9 µM
- TGI (SNB-78 CNS): > 100 µM
- TGI (SR leukemia): 69.9 µM
- TGI (SW-620 colon): 44 µM
- TGI (T-47D breast): 58 µM
- TGI (TK-10 renal): 98.1 µM
- TGI (U251 CNS): > 84.1 µM
- TGI (UACC-257 melanoma): 36.3 µM
- TGI (UACC-62 melanoma): 39.6 µM
- TGI (UO-31 renal): 50.5 µM
- TGI (XF 498 CNS): 39.7 µM

SMILES: C/C(CCn1[nH]c(=O)ccc1=O)=N\OCCCc1ccccc1
- TGI (786-0 renal): > 100 µM
- TGI (A498 renal): > 100 µM
- TGI (A549 NSCLC): > 100 µM
- TGI (ACHN renal): > 100 µM
- TGI (CAKI-1 renal): > 100 µM
- TGI (CCRF-CEM leukemia): > 100 µM
- TGI (DLD-1 colon): > 100 µM
- TGI (DMS 114 small cell lung): > 100 µM
- TGI (DMS 273 small cell lung): > 100 µM
- TGI (EKVX NSCLC): > 100 µM
- TGI (HCC-2998 colon): > 100 µM
- TGI (HCT-116 colon): > 100 µM
- TGI (HCT-15 colon): > 100 µM
- TGI (HL-60(TB) leukemia): > 100 µM
- TGI (HOP-18 NSCLC): > 100 µM
- TGI (HOP-62 NSCLC): > 100 µM
- TGI (HOP-92 NSCLC): > 100 µM
- TGI (HT29 colon): > 100 µM
- TGI (IGROV1 ovarian): > 100 µM
- TGI (K-562 leukemia): > 100 µM
- TGI (KM12 colon): > 100 µM
- TGI (KM20L2 colon): > 100 µM
- TGI (LOX IMVI melanoma): > 100 µM
- TGI (LXFL 529 NSCLC): > 100 µM
- TGI (M14 melanoma): > 100 µM
- TGI (M19-MEL melanoma): > 100 µM
- TGI (MALME-3M melanoma): > 100 µM
- TGI (MOLT-4 leukemia): > 100 µM
- TGI (NCI-H226 lung): > 100 µM
- TGI (NCI-H23 lung): > 100 µM
- TGI (NCI-H460 lung): > 100 µM
- TGI (OVCAR-3 ovarian): > 100 µM
- TGI (OVCAR-4 ovarian): > 100 µM
- TGI (OVCAR-5 ovarian): > 100 µM
- TGI (OVCAR-8 ovarian): > 100 µM
- TGI (RPMI-8226 leukemia): > 100 µM
- TGI (RXF 393 renal): > 100 µM
- TGI (SF-268 CNS): > 100 µM
- TGI (SF-295 CNS): > 100 µM
- TGI (SF-539 CNS): > 100 µM
- TGI (SK-MEL-2 melanoma): > 100 µM
- TGI (SK-MEL-28 melanoma): > 100 µM
- TGI (SK-MEL-5 melanoma): > 100 µM
- TGI (SN12C renal): > 100 µM
- TGI (SNB-19 CNS): > 100 µM
- TGI (SNB-75 CNS): > 100 µM
- TGI (SNB-78 CNS): > 100 µM
- TGI (SR leukemia): > 100 µM
- TGI (SW-620 colon): > 100 µM
- TGI (TK-10 renal): > 100 µM
- TGI (UACC-257 melanoma): > 100 µM
- TGI (UACC-62 melanoma): > 100 µM
- TGI (UO-31 renal): > 100 µM
- TGI (XF 498 CNS): > 100 µM
